Reference: US12319679B2, “Morpholinyl, piperazinyl, oxazepanyl and diazepanyl O-glycoprotein-2-acetamido-2-deoxy-3-d-glucopyranosidase inhibitors” (BIOGEN MA INC., priority 2018, dated 2025)

biological target: T1, Recombinant full length human OGA enzyme (Homo sapiens, UniProt O60502); assay: OGA Enzyme Inhibition Biochemical Assay; details: 1 nM OGA, 100 μM 4-MUGlcNAc (Km), pH 6.4, 90 minutes at room temperature; 10-point dose-response starting from 20 μM
T1 construct: Recombinant full length human OGA enzyme was purchased from Origene; purchased Origene
T1 sequence (O60502 1-916): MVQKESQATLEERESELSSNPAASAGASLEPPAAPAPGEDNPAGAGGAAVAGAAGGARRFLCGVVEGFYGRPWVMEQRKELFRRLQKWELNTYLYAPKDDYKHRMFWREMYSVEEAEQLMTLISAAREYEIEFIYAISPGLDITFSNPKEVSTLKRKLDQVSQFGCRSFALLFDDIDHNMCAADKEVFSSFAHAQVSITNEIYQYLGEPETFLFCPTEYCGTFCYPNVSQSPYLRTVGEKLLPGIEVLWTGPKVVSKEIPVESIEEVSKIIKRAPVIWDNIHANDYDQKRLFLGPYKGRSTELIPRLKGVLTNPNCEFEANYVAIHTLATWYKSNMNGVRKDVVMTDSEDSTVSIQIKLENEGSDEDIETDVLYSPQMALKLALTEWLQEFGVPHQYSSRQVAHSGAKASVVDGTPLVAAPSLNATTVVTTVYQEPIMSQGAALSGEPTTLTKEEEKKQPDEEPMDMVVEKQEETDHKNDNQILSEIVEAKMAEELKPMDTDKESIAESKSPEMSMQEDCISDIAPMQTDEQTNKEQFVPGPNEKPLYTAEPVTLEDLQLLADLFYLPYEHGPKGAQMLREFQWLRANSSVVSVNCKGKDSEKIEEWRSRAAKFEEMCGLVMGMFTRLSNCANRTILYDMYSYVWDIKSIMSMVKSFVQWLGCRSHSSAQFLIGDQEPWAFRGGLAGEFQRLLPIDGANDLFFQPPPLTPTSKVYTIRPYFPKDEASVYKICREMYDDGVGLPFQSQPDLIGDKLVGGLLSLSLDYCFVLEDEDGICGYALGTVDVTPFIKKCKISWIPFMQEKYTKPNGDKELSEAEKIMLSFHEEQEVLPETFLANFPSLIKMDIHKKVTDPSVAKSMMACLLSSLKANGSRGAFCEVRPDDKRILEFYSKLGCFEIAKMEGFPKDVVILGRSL
Method: OGA Enzyme Inhibition Biochemical Assay
Recombinant full length human OGA enzyme was purchased from Origene. 4-MUGlCNAc substrate was purchased from Sigma. All other reagents were purchased from Sigma or Fisher. Assay buffer consists of the McIlvaine buffer system, pH 6.4 (0.2M Na2HPO4 mixed with 0.1M citric acid) and 0.01% BSA. Reactions consist of 1 nM OGA, 100 μM 4-MUGlcNAc (Km), and compound in a final volume of 10 μl. Reactions were incubated for 90 minutes at room temperature and quenched with 40 μl of 3M glycine, pH 10 and read on a Perkin Elmer Envision plate reader (Ex: 355 nm/Em: 460 nm). Compounds were tested with a 10-point dose-response starting from 20 μM with a 4-fold dilution. Data was fit using GraphPad Prism using a 4-paramter fit with variable slope.

Row | SMILES | IC50 [µM]
1 | CC(=O)Nc1ncc(CN2CCN(C)[C@H](Cc3ccnc(C)c3)C2)s1 [Example 4-9, (R)—N-(5-((4-methyl-3-((2-methylpyridin-4-yl)methyl)piperazin-1-yl)methyl)thiazol-2-yl)acetamide] | > 20
2 | CC(=O)Nc1ncc(CN2CCO[C@H](Cc3ccnc(OCC(F)(F)F)c3)C2)s1 [Example 1-10] | 0.16
3 | CCN1C[C@H](C)N(Cc2cnc(NC(C)=O)s2)C[C@H]1Cc1ccc(C)nc1 [Example 2-12, N-(5-(((2S,5R)-4-ethyl-2-methyl-5-((6-methylpyridin-3-yl)methyl)piperazin-1-yl)methyl)thiazol-2-yl)acetamide] | 0.18
4 | CC(=O)Nc1ncc(CN2CCN(C)[C@@H](Cc3ccc(C)nc3)C2)s1 [Example 4-16, (S)—N-(5-((4-methyl-3-((6-methylpyridin-3-yl)methyl)piperazin-1-yl)methyl)thiazol-2-yl)acetamide] | 2
5 | CC(=O)Nc1ncc(CN2CCOCC(Cc3ncc(F)cn3)C2)s1 (single isomer, unassigned) [Example 1-45 Peak 1] | 1.6
6 | CC(=O)Nc1ncc(CN2C[C@@H](COc3cc(C)nc(C)c3)NC[C@@H]2C)s1 [Example 3-1, N-(5-(((2S,5S)-5-(((2,6-dimethylpyridin-4-yl)oxy)methyl)-2-methylpiperazin-1-yl)methyl)thiazol-2-yl)acetamide] | 0.021
7 | COc1nccc(C[C@@H]2CN(Cc3cnc(NC(C)=O)s3)CCO2)c1C [Example 1-5, (R)—N-(5-((2-((2-methoxy-3-methylpyridin-4-yl)methyl)morpholino)methyl)thiazol-2-yl)acetamide] | 0.061
8 | CC(=O)Nc1ncc(CN2CCCOC(Cc3cc(C)nc(C)c3)C2)s1 (racemic) [Example 1-36, N-(5-((2-((2,6-dimethylpyridin-4-yl)methyl)-1,4-oxazepan-4-yl)methyl)thiazol-2-yl)acetamide] | 0.057
9 | COc1cc(C[C@@H]2CN(Cc3cnc(NC(C)=O)s3)CCO2)ncn1 [Example 1-8, (R)—N-(5-((2-((6-methoxypyrimidin-4-yl)methyl)morpholino)methyl)thiazol-2-yl)acetamide] | 0.13
10 | CC(=O)Nc1ncc(CN2C[C@@H](Cc3ncc(F)cn3)NC[C@@H]2C)s1 [Example 2-5] | 0.019
11 | CC(=O)Nc1ncc(CN2C[C@@H](Cc3cc(C)nc(C)n3)N(C)C[C@@H]2C)s1 [Example 2-17] | 0.041
12 | CC(=O)Nc1ncc(CN2C[C@@H](Cc3ncc(F)cn3)N(C)C[C@@H]2C)s1 [Example 2-6, N-(5-(((2S,5R)-5-((5-fluoropyrimidin-2-yl)methyl)-2,4-dimethylpiperazin-1-yl)methyl)thiazol-2-yl)acetamide] | 0.017
13 | COc1cc(CC2COCCN(Cc3cnc(NC(C)=O)s3)C2)ccn1 (single isomer, unassigned) [Example 1-47 Peak 2] | 0.017
14 | CC(=O)Nc1ncc(CN2CCOCC(Cc3ncc(F)cn3)C2)s1 (racemic) [Example 1-44, N-(5-((6-((5-fluoropyrimidin-2-yl)methyl)-1,4-oxazepan-4-yl)methyl)thiazol-2-yl)acetamide] | 0.032
15 | COc1cc(C[C@@H]2CN(Cc3cnc(NC(C)=O)s3)CCO2)ccc1F [Example 1-6, (R)—N-(5-((2-(4-fluoro-3-methoxybenzyl)morpholino)methyl)thiazol-2-yl)acetamide] | 0.1
16 | CCOc1cc(C[C@@H]2CN(Cc3cnc(NC(C)=O)s3)CCO2)ccn1 [Example 1-11, (R)—N-(5-((2-((2-ethoxypyridin-4-yl)methyl)morpholino)methyl)thiazol-2-yl)acetamide] | 0.13
17 | CC(=O)Nc1ncc(CN2CCNC(Cc3ccnc(C)c3)C2)s1 (single isomer, unassigned) [Example 4-8 Peak 1] | 6.7
18 | CC(=O)Nc1ncc(CN2CCNC(Cc3ncc(F)cn3)C2)s1 (single isomer, unassigned) [Example 2-20 Peak 1] | 0.56
19 | COc1cc(CC2CN(Cc3cnc(NC(C)=O)s3)CCN2)ccc1F (single isomer, unassigned) [Example 4-6 Peak 1] | 11
